The compounds below were run against T1, cellular PARG (Homo sapiens, UniProt Q86W56) (assay: Nuclear PAR accumulation assay (immunofluorescence high-content imaging, MMS-treated HeLa cells)). Settings: 1 hour compound then MMS 50 μg/mL for an additional hour.
T1 construct: endogenous in cells; host or cells: HeLa
T1 sequence (Q86W56 whole entry): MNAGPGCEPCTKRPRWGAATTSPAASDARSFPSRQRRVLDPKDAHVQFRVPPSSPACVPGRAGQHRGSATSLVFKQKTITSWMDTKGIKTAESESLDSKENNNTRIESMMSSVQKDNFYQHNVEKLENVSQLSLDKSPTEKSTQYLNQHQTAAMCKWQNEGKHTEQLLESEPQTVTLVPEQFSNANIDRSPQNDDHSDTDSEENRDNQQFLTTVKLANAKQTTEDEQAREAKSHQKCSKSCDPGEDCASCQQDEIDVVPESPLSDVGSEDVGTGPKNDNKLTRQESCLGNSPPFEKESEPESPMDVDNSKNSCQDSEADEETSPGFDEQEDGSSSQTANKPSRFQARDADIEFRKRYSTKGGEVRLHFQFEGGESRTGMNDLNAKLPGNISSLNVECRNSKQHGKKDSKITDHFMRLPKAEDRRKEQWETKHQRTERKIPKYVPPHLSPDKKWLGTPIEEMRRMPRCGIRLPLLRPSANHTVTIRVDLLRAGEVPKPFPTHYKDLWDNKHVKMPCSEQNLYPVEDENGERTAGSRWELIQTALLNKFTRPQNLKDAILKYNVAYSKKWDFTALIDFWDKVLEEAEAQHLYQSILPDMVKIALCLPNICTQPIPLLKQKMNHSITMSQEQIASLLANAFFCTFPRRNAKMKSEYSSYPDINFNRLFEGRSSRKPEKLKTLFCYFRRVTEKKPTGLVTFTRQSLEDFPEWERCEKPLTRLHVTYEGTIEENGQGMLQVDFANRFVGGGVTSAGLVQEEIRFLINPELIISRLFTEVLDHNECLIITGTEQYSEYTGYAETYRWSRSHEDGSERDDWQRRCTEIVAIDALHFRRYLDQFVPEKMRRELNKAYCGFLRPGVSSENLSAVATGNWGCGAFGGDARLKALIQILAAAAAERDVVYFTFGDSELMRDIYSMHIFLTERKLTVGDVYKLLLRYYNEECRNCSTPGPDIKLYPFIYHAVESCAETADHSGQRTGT
Assay type: cell-based
How it was run: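 HeLa cells pretreated with compound for 1 h at 37° C, then given 50 μg/mL MMS for another hour. After methanol fixation, PAR was immunostained with DAPI nuclear counterstain; per-nucleus intensity and percent PAR-positive cells were imaged at 20× (≥1,000 cells/well). IC50 from four-parameter logistic fit.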
Compound [2H]C([2H])(c1cnn(C)c1)N1C(=O)c2cc(S(=O)(=O)NC3(C)CC3)ccc2N2C1=NC[C@H]2C#Cc1cncnc1NC [Example 263, (R)-4-((1-methyl-1H-pyrazol-4-yl)methyl-d2)-1-((4-(methylamino)pyrimidin-5-yl)ethynyl)-N-(1-methylcyclopropyl)-5-oxo-1,2,4,5-tetrahydroimidazo[1,2-a]quinazoline-7-sulfonamide] has an IC50 of less than 0.1 µM. With CCN1C(=O)c2cc(S(=O)(=O)NC3(C)CC3)c(F)cc2N2C1=N[C@H]1CCC[C@H]12 [Example 264, (7aS,10aR)-6-ethyl-2-fluoro-N-(1-methylcyclopropyl)-5-oxo-6,7a,8,9,10,10a-hexahydro-5H-cyclopenta[4,5]imidazo[1,2-a]quinazoline-3-sulfonamide] the IC50 was less than 0.1 µM. CCN1C(=O)c2cc(S(=O)(=O)NC3(C)CC3)ccc2N2C1=NC[C@H]2C#Cc1cn(C)nc1C [Example 265, (R)-1-((1,3-dimethyl-1H-pyrazol-4-yl)ethynyl)-4-ethyl-N-(1-methylcyclopropyl)-5-oxo-1,2,4,5-tetrahydroimidazo[1,2-a]quinazoline-7-sulfonamide] was tested, and the IC50 was less than 0.1 µM. [2H]C([2H])(c1cnn(C)c1)N1C(=O)c2cc(S(=O)(=O)NC3(C)CC3)ccc2N2C1=NC[C@H]2C#Cc1nn(C)nc1C [Example 266, (R)-1-((2,5-dimethyl-2H-1,2,3-triazol-4-yl)ethynyl)-4-((1-methyl-1H-pyrazol-4-yl)methyl-d2)-N-(1-methylcyclopropyl)-5-oxo-1,2,4,5-tetrahydroimidazo[1,2-a]quinazoline-7-sulfonamide] was tested, and the IC50 was less than 0.1 µM. C[C@@H]1CN=C2N(Cc3ccnc(/C=C/CN(C)C)c3)C(=O)c3cc(S(=O)(=O)NC4(C)CC4)ccc3N21 [Example 267, (R,E)-4-((2-(3-(dimethylamino)prop-1-en-1-yl)pyridin-4-yl)methyl)-1-methyl-N-(1-methylcyclopropyl)-5-oxo-1,2,4,5-tetrahydroimidazo[1,2-a]quinazoline-7-sulfonamide] was tested, and the IC50 was 1 to 10 µM. With [2H]C([2H])(c1cnn(C)c1)N1C(=O)c2cc(S(=O)(=O)NC3(C)CC3)ccc2N2C1=NC[C@H]2C#Cc1cncnc1N [Example 268, (R)-1-((4-aminopyrimidin-5-yl)ethynyl)-4-((1-methyl-1H-pyrazol-4-yl)methyl-d2)-N-(1-methylcyclopropyl)-5-oxo-1,2,4,5-tetrahydroimidazo[1,2-a]quinazoline-7-sulfonamide] the IC50 was less than 0.1 µM. With [2H]C([2H])(c1cnn(C)c1)N1C(=O)c2cc(S(=O)(=O)NC3(C)CC3)ccc2N2C1=NC[C@H]2C#Cc1cncc(OC)c1 [Example 269, (R)-1-((5-methoxypyridin-3-yl)ethynyl)-4-((1-methyl-1H-pyrazol-4-yl)methyl-d2)-N-(1-methylcyclopropyl)-5-oxo-1,2,4,5-tetrahydroimidazo[1,2-a]quinazoline-7-sulfonamide] the IC50 was less than 0.1 µM. Compound CN(C)C1([C@@H]2CN=C3N(Cc4cnn(C)c4)C(=O)c4cc(S(=O)(=O)NC5(C)CC5)ccc4N32)CC1 [Example 270, (S)-1-(1-(dimethylamino)cyclopropyl)-4-((1-methyl-1H-pyrazol-4-yl)methyl)-N-(1-methylcyclopropyl)-5-oxo-1,2,4,5-tetrahydroimidazo[1,2-a]quinazoline-7-sulfonamide] has an IC50 of less than 0.1 µM. Work on COc1ccc(CN2C(=O)c3cc(S(=O)(=O)NC4(C)CC4)ccc3N3C2=N[C@H]2CCC[C@H]23)cn1 [Example 273, (7aS,10aR)-6-((6-methoxypyridin-3-yl)methyl)-N-(1-methylcyclopropyl)-5-oxo-6,7a,8,9,10,10a-hexahydro-5H-cyclopenta[4,5]imidazo[1,2-a]quinazoline-3-sulfonamide] yielded an IC50 of 0.1 to 1 µM. Work on [2H]C([2H])(c1cnn(C)c1)N1C(=O)c2cc(S(=O)(=O)NC3(C)CC3)c(F)cc2N2CC(C)(C)N=C21 [Example 274, 8-fluoro-2,2-dimethyl-4-((1-methyl-1H-pyrazol-4-yl)methyl-d2)-N-(1-methylcyclopropyl)-5-oxo-1,2,4,5-tetrahydroimidazo[1,2-a]quinazoline-7-sulfonamide] yielded an IC50 of less than 0.1 µM. With [2H]C([2H])(c1cnn(C)c1)N1C(=O)c2cc(S(=O)(=O)NC3(C)CC3)ccc2N2C1=NC[C@H]2C#Cc1cnc(C)nc1 [Example 275, (R)-4-((1-methyl-1H-pyrazol-4-yl)methyl-d2)-N-(1-methylcyclopropyl)-1-((2-methylpyrimidin-5-yl)ethynyl)-5-oxo-1,2,4,5-tetrahydroimidazo[1,2-a]quinazoline-7-sulfonamide] the IC50 was less than 0.1 µM. For CN1CCC[C@H]1[C@@H]1CN=C2N(Cc3cnn(C)c3)C(=O)c3cc(S(=O)(=O)NC4(C)CC4)ccc3N21 [Example 276, (S)-4-((1-methyl-1H-pyrazol-4-yl)methyl)-N-(1-methylcyclopropyl)-1-((S)-1-methylpyrrolidin-2-yl)-5-oxo-1,2,4,5-tetrahydroimidazo[1,2-a]quinazoline-7-sulfonamide], the IC50 was less than 0.1 µM. Cc1nn(C)cc1C#C[C@@H]1CN=C2N(CC3CC3)C(=O)c3cc(S(=O)(=O)NC4(C)CC4)ccc3N21 [Example 277, (R)-4-(cyclopropylmethyl)-1-((1,3-dimethyl-1H-pyrazol-4-yl)ethynyl)-N-(1-methylcyclopropyl)-5-oxo-1,2,4,5-tetrahydroimidazo[1,2-a]quinazoline-7-sulfonamide] showed an IC50 of less than 0.1 µM. Work on C[C@@H]1CN=C2N(CC#Cc3ccc(F)nc3)C(=O)c3cc(S(=O)(=O)NC4(C)CC4)ccc3N21 [Example 278, (R)-4-(3-(6-fluoropyridin-3-yl)prop-2-yn-1-yl)-1-methyl-N-(1-methylcyclopropyl)-5-oxo-1,2,4,5-tetrahydroimidazo[1,2-a]quinazoline-7-sulfonamide] yielded an IC50 of 0.1 to 1 µM. In the case of CC(=O)N1CCn2ncc(CN3C(=O)c4cc(S(=O)(=O)NC5(C)CC5)ccc4N4C3=NC[C@H]4C)c2C1 [Example 279, (R)-4-((5-acetyl-4,5,6,7-tetrahydropyrazolo[1,5-a]pyrazin-3-yl)methyl)-1-methyl-N-(1-methylcyclopropyl)-5-oxo-1,2,4,5-tetrahydroimidazo[1,2-a]quinazoline-7-sulfonamide], the IC50 is reported as 0.1 to 1 µM. With [2H]C([2H])(c1cnn(C)c1)N1C(=O)c2cc(S(=O)(=O)NC3(C)CC3)ccc2N2C1=NC[C@H]2C#Cc1ccc(N(C)C)nc1 [Example 280, (R)-1-((6-(dimethylamino)pyridin-3-yl)ethynyl)-4-((1-methyl-1H-pyrazol-4-yl)methyl-d2)-N-(1-methylcyclopropyl)-5-oxo-1,2,4,5-tetrahydroimidazo[1,2-a]quinazoline-7-sulfonamide] the IC50 was less than 0.1 µM. [2H]C([2H])(c1cnn(C)c1)N1C(=O)c2cc(S(=O)(=O)NC3(C)CC3)ccc2N2C1=NC[C@H]2C#CC1=CCNCC1 [Example 281, (R)-4-((1-methyl-1H-pyrazol-4-yl)methyl-d2)-N-(1-methylcyclopropyl)-5-oxo-1-((1,2,3,6-tetrahydropyridin-4-yl)ethynyl)-1,2,4,5-tetrahydroimidazo[1,2-a]quinazoline-7-sulfonamide] was tested, and the IC50 was less than 0.1 µM. [2H]C([2H])(c1cnn(C)c1)N1C(=O)c2cc(S(=O)(=O)NC3(C)CC3)ccc2N2C1=NC[C@H]2C#CC1=CCOCC1 [Example 282, (R)-1-((3,6-dihydro-2H-pyran-4-yl)ethynyl)-4-((1-methyl-1H-pyrazol-4-yl)methyl-d2)-N-(1-methylcyclopropyl)-5-oxo-1,2,4,5-tetrahydroimidazo[1,2-a]quinazoline-7-sulfonamide] was tested, and the IC50 was less than 0.1 µM. Work on [2H]C([2H])(c1cnn(C)c1)N1C(=O)c2cc(S(=O)(=O)NC3(C)CC3)ccc2N2C1=N[C@@H]1C[C@@H](N)C[C@@H]12 [Example 283, (7aR,9R,10aS)-9-amino-6-((1-methyl-1H-pyrazol-4-yl)methyl-d2)-N-(1-methylcyclopropyl)-5-oxo-6,7a,8,9,10,10a-hexahydro-5H-cyclopenta[4,5]imidazo[1,2-a]quinazoline-3-sulfonamide] yielded an IC50 of 1 to 10 µM. For [2H]C([2H])(c1cnn(C)c1)N1C(=O)c2cc(S(=O)(=O)NC3(C)CC3)ccc2N2C1=N[C@H]1C[C@H](N(C)C)C[C@H]12 [Example 284, (7aS,9S,10aR)-9-(dimethylamino)-6-((1-methyl-1H-pyrazol-4-yl)methyl-d2)-N-(1-methylcyclopropyl)-5-oxo-6,7a,8,9,10,10a-hexahydro-5H-cyclopenta[4,5]imidazo[1,2-a]quinazoline-3-sulfonamide], the IC50 was 1 to 10 µM. For [2H]C([2H])(c1cnn(C)c1)N1C(=O)c2cc(S(=O)(=O)NC3(C)CC3)ccc2N2C1=N[C@@H]1C[C@@H](N(C)C)C[C@@H]12 [Example 285, (7aR,9R,10aS)-9-(dimethylamino)-6-((1-methyl-1H-pyrazol-4-yl)methyl-d2)-N-(1-methylcyclopropyl)-5-oxo-6,7a,8,9,10,10a-hexahydro-5H-cyclopenta[4,5]imidazo[1,2-a]quinazoline-3-sulfonamide], the IC50 was 0.1 to 1 µM. [2H]C([2H])(c1cnn(C)c1)N1C(=O)c2cc(S(=O)(=O)NC3(C)CC3)c(NCc3ccc(OC)nc3)cc2N2C1=N[C@H]1CCC[C@H]12 [Example 286, (7aS,10aR)-2-(((6-methoxypyridin-3-yl)methyl)amino)-6-((1-methyl-1H-pyrazol-4-yl)methyl-d2)-N-(1-methylcyclopropyl)-5-oxo-6,7a,8,9,10,10a-hexahydro-5H-cyclopenta[4,5]imidazo[1,2-a]quinazoline-3-sulfonamide] gave an IC50 of less than 0.1 µM. For [2H]C([2H])(c1cnn(C)c1)N1C(=O)c2cc(S(=O)(=O)NC3(C)CC3)c(NCC#Cc3cncnc3)cc2N2C1=N[C@H]1CCC[C@H]12 [Example 287, (7aS,10aR)-6-((1-methyl-1H-pyrazol-4-yl)methyl-d2)-N-(1-methylcyclopropyl)-5-oxo-2-((3-(pyrimidin-5-yl)prop-2-yn-1-yl)amino)-6,7a,8,9,10,10a-hexahydro-5H-cyclopenta[4,5]imidazo[1,2-a]quinazoline-3-sulfonamide], the IC50 was less than 0.1 µM.

— patent US20260285875A1, “INHIBITORS OF PARG” (858 Therapeutics, Inc., priority 2023, published 2026)
